In brackets after ≈: the same amount, converted by molar mass.
Columns and labels:
Type in all cases: functional
Cryptococcus neoformans = experiment: Antimicrobial activity against Cryptococcus neoformans
Aspergillus niger = experiment: Antimicrobial activity against Aspergillus niger
Candida albicans = experiment: Antimicrobial activity against Candida albicans
Staphylococcus aureus = experiment: Antimicrobial activity against Staphylococcus aureus
Micrococcus luteus = experiment: Antimicrobial activity against Micrococcus luteus
[1] = test system: Trichophyton mentagrophytes; experiment: Antimicrobial activity against Trichophyton mentagrophytes

SMILES | MIC (Cryptococcus neoformans) [µg/mL] | MIC (Aspergillus niger) [µg/mL] | MIC (Candida albicans) [µg/mL] | MIC (Staphylococcus aureus) [µg/mL] | MIC (Micrococcus luteus) [µg/mL] | MIC [1] [µg/mL]
C[N+](C)(C)CCCOc1c(Br)cc(C/C(=N\O)C(=O)NCCc2nc(N)[nH]c2-c2cc(O)c3[nH]cc(O)c(=O)c3c2O)cc1Br [TYROKERADINE A] | > 25 | > 25 | > 25 | > 25 | > 25 | > 25
NCCCOc1c(Br)cc(C/C(=N\O)C(=O)NCCc2nc(N)[nH]c2-c2cc(O)c3[nH]cc(O)c(=O)c3c2O)cc1Br [TYROKERADINE B] | 12.5 (≈ 17.6 µM) | 12.5 (≈ 17.6 µM) | 12.5 (≈ 17.6 µM) | 25 (≈ 35.2 µM) | 25 (≈ 35.2 µM) | 25 (≈ 35.2 µM)

From ChEMBL document CHEMBL1153275, “Tyrokeradines A and B, new bromotyrosine alkaloids with an imidazolyl-quinolinone moiety from a verongid sponge” (2009)
